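Protocol summary: plate cells (96-well), add compound at 5 concentrations, incubate 48 h, interpolate endpoints linearly. TGI: total growth inhibition.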
Experiments:
Experiment in all cases: inhibition of tumour cell growth, NCI panel, 48 h
EKVX NSCLC = tested on: EKVX NSCLC
T-47D breast = tested on: T-47D breast
HL-60(TB) leukemia = tested on: HL-60(TB) leukemia
ACHN renal = tested on: ACHN renal
PC-3 prostate = tested on: PC-3 prostate
SR leukemia = tested on: SR leukemia
UACC-257 melanoma = tested on: UACC-257 melanoma
HCT-116 colon = tested on: HCT-116 colon
SW-620 colon = tested on: SW-620 colon
SNB-75 CNS = tested on: SNB-75 CNS
A498 renal = tested on: A498 renal
OVCAR-8 ovarian = tested on: OVCAR-8 ovarian
UO-31 renal = tested on: UO-31 renal
MDA-MB-231 breast = tested on: MDA-MB-231 breast
OVCAR-3 ovarian = tested on: OVCAR-3 ovarian
BT-549 breast = tested on: BT-549 breast
SF-268 CNS = tested on: SF-268 CNS
COLO 205 colon = tested on: COLO 205 colon
NCI/ADR-RES ovarian = tested on: NCI/ADR-RES ovarian
HOP-92 NSCLC = tested on: HOP-92 NSCLC

SMILES	TGI (EKVX NSCLC) [µM]	TGI (T-47D breast) [µM]	TGI (HL-60(TB) leukemia) [µM]	TGI (ACHN renal) [µM]	TGI (PC-3 prostate) [µM]	TGI (SR leukemia) [µM]	TGI (UACC-257 melanoma) [µM]	TGI (HCT-116 colon) [µM]	TGI (SW-620 colon) [µM]	TGI (SNB-75 CNS) [µM]	TGI (A498 renal) [µM]	TGI (OVCAR-8 ovarian) [µM]	TGI (UO-31 renal) [µM]	TGI (MDA-MB-231 breast) [µM]	TGI (OVCAR-3 ovarian) [µM]	TGI (BT-549 breast) [µM]	TGI (SF-268 CNS) [µM]	TGI (COLO 205 colon) [µM]	TGI (NCI/ADR-RES ovarian) [µM]	TGI (HOP-92 NSCLC) [µM]
Cc1ccc(/C=C2\Cc3cc(C)c(C)cc3C2=O)c(C(=O)O)c1	> 100	> 100	> 100	> 100	> 100	> 100	> 100	> 100	> 100	> 100	61.3	> 100	> 100	> 100	> 100	82.6	> 100	–	–	–
N#Cc1c(-c2ccccc2)cc(-c2ccccc2)n(C2OCC(O)C(O)C2O)c1=S (stereo not given)	90.2	26.6	–	38.1	29.4	–	75.4	28.4	33.5	66.3	64.2	43.7	54	23.9	43.2	44	80	56.9	86.5	–
CNC(=O)CCCNC(=O)CCCC(=O)OC	> 100	> 100	> 100	> 100	> 100	–	> 100	> 100	> 100	> 100	> 100	> 100	> 100	> 100	> 100	> 100	> 100	> 100	> 100	> 100
O=c1cc(CNC2CC3CCC2C3)[nH]c(=O)[nH]1 (stereo not given)	> 100	> 100	> 100	> 100	> 100	> 100	> 100	> 100	> 100	> 100	> 100	> 100	> 100	> 100	> 100	> 100	> 100	> 100	> 100	–
O=C(/C=C(\Nc1ccccc1O)c1ccc(Br)cc1)C(Cl)(Cl)Cl	13.9	20.2	9.39	14.9	11.9	36.7	20.1	22.4	16.5	26.8	–	27	10.8	20.3	18.5	28.5	25.8	22.1	25.1	15.4
Nc1[nH]c(=O)[nH]c(=O)c1Cc1cccc(Cl)c1	> 100	> 100	–	> 100	> 100	–	> 100	> 100	> 100	> 100	> 100	> 100	> 100	> 100	> 100	> 100	> 100	> 100	> 100	> 100
COc1cc(C(=O)O)c(-c2cc3c(cc2C=O)OCO3)c(OC)c1OC	–	> 10	> 10	> 10	> 10	> 10	> 10	> 10	> 10	> 10	–	> 10	–	> 10	> 10	> 10	> 10	> 10	> 10	> 10
Nc1c(Cl)cc(-c2nc3ccccc3s2)cc1Cl	> 100	> 100	> 100	> 100	> 100	> 100	> 100	> 100	> 100	> 100	–	> 100	> 100	> 100	> 100	> 100	> 100	> 100	> 100	> 100
COC(=O)[C@@]1(NC(=O)C(CC(=O)OC(C)(C)C)NC(=O)OC(C)(C)C)C[C@H]1C (stereo not given in full)	> 100	> 100	–	> 100	> 100	–	> 100	> 100	> 100	> 100	> 100	> 100	> 100	> 100	> 100	> 100	> 100	> 100	> 100	–
CCC(=O)C(CCN1CCC(N2C(=O)C(CCC#N)c3ccccc32)CC1)(c1ccccc1)c1ccccc1 (stereo not given)	–	29.3	22.2	43.8	43.2	10.2	26.7	17	24	31.7	40.1	23.6	21.4	20.8	22.9	26.2	34.5	21.4	25	–
COc1ccccc1C1c2cc3c(cc2OC(N2CCCC2)C1C)OCO3 (stereo not given)	50.6	25.5	49	> 57.5	32.4	31.1	48.1	29.1	44.7	27.3	30.3	64	33	–	32.4	48	30.9	35.6	53.7	20.6
CCC(C)N1CN(c2ccccc2)C2(CCN(CCCSc3ccc(F)cc3)CC2)C1=O (stereo not given)	10.4	10.2	17.8	9.76	19.4	46.7	7.37	10.1	17.3	25	–	21.5	6.61	1.1	7.25	6.99	23.7	3.47	11	–
c1cc(CN2CCNCCNCCNCC2)cc(CN2CCNCCNCCNCC2)c1	> 100	> 100	–	> 100	> 100	> 100	> 100	> 100	> 100	> 100	–	> 100	> 100	> 100	> 100	> 100	> 100	> 100	> 100	–
CC(=O)NCCCCN(CCCNC(C)=O)C(=O)OCc1ccccc1	> 100	> 100	> 100	> 100	> 100	–	> 100	> 100	> 100	> 100	> 100	> 100	> 100	> 100	> 100	> 100	> 100	> 100	> 100	> 100
Cc1ccc(/N=N/C(=NNC(=O)c2ccc(C)cc2)c2ccc(N(C)C)cc2)cc1	> 100	> 100	72.1	92.4	> 100	45.1	60	68.2	> 100	–	–	> 100	68	> 100	54.2	62.4	> 100	31.1	> 100	80.2
NC(=O)c1sc2nc3ccccc3n2c1N	> 100	> 100	> 100	> 100	> 100	–	> 100	> 100	> 100	79.1	> 100	> 100	> 100	> 100	> 100	76.8	> 100	> 100	> 100	> 100
CN(CCNC(=S)c1cn(C)c2c1ccc1ccccc12)CCNC(=S)c1cn(C)c2c1ccc1ccccc12	> 100	28.6	–	> 100	> 100	> 100	> 100	> 100	> 100	> 100	–	> 100	> 100	> 100	> 100	> 100	> 100	> 100	> 100	> 100
CC(=O)N(CC(=O)C(=O)NNc1ccoc1)c1ccc(Cl)cc1	> 100	> 100	–	> 100	> 100	> 100	> 100	> 100	> 100	> 100	–	> 100	> 100	> 100	> 100	> 100	> 100	> 100	> 100	> 100
CSc1c(C#N)c(S)n(-c2ccc(Cl)cc2)c(=O)c1C#N	> 100	> 100	> 100	–	> 100	> 100	> 100	> 100	> 100	> 100	> 100	> 100	95.8	> 100	> 100	> 100	> 100	> 100	> 100	–
COc1cccc(C(NC2=NCCC=N2)c2cc3c(cc2O)OCO3)c1O (stereo not given)	> 100	63.5	23.3	> 100	> 100	34.9	> 100	62.5	41.8	93.8	78.8	25.4	> 100	59.9	59.7	33.3	> 100	> 100	–	77.5
O=C(Nc1ccc2[nH]c(C(=O)N3CC(CCl)c4ccc([N+](=O)[O-])cc43)cc2c1)c1cc2ccccc2o1 (stereo not given)	> 1100	> 1100	> 1100	–	–	–	> 1100	> 1100	> 1100	–	> 1100	> 1100	> 1100	> 1100	> 1100	> 1100	> 1100	> 1100	> 1100	> 1100
O=C1CSC(c2ccccc2O)N1c1ccc(Oc2ccc(Cl)cc2)c(Cl)c1 (stereo not given)	45.9	46.8	51.2	94	60	40.2	81.4	28.6	> 100	47.3	–	74.6	20.7	34.3	62.4	34.9	31.4	35	48.4	39.1
O=S(=O)(O)c1ccc2cc(N=Nc3c(O)ccc4ccccc34)ccc2c1	> 100	> 100	> 100	> 100	> 100	> 100	> 100	> 100	> 100	> 100	> 100	> 100	> 100	–	> 100	> 100	> 100	> 100	> 100	> 100
C=C(CCC=C(C)C)C1CC=C(C)CC1 (stereo not given)	92.7	> 100	–	33.4	–	–	> 100	57.9	53.6	–	> 100	> 100	30.6	97.6	81.2	> 100	> 100	71.5	> 100	–
CCOP(=O)(OCC)C(Cc1ccc(Cl)cc1)NS(=O)(=O)c1ccc(C)cc1 (stereo not given)	> 100	> 100	> 100	> 100	> 100	–	> 100	–	> 100	–	> 100	> 100	–	> 100	> 100	> 100	> 100	> 100	> 100	> 100
C[C@@]1(OC(=O)c2cc([N+](=O)[O-])cc([N+](=O)[O-])c2)C[C@@H]2CCCC[C@@H]21	> 100	> 100	> 100	> 100	> 100	> 100	> 100	> 100	> 100	> 100	–	> 100	> 100	> 100	–	> 100	> 100	> 100	> 100	–
